How the values were obtained:
rat skeletal L6 myotubes = test: Glucose uptake in L6 myotubes; assay type: cell-based; conditions: 2.5, 5, 10 μM; absence of insulin; siAMPKα1/α2
Description: Rat L6 skeletal muscle cells grown in high-glucose (4.5 g/L) Dulbecco's Modified Eagle Medium (Gibco #31966), 10% fetal bovine serum (Gibco #10500-064) and 25 μg/ml gentamicin (Gibco 1 #5750) were induced to differentiate, by reducing the serum concentration to 2% for 14 days by which time the majority of myoblast had differentiated to myotubes. Myotubes were rinsed in serum-free low-glucose (1 g/L) DMEM (Gibco a #21885), treated with vehicle control, 2.5, 5 and 10 μM test material (serum-free low-glucose DMEM, 0.1% DMSO) for 2 hours, rinsed in serum-free DMEM w/o glucose (Gibco #11966) and thereafter incubated with the same for 20 minutes before addition of 1 μCi 2-Deoxy-D-glucose (2-DG) (Perkin Elmer #NET549A250UC) for 10 minutes. The cells were rinsed 3 times in serum-free DMEM w/o glucose and lysed in 1 ml RIPA buffer (150 mM Sodiumchloride, 1% NP40, 0.5% Sodiumdeoxycholate, 0.1% SDS, 50 mM Tris pH8.0). 300 μl were added to 4 ml liquid scintillation cocktail (Perkin Elmer #1200-437) before counted, 1 minute, in a Wallac 1414 beta counter. CPM was converted to arbitrary units by setting vehicle control as 1. […]

[1] = tested on: patients suffering from type-2 diabetes; test: Renal hemodynamics / glomerular perfusion in humans; assay type: in vivo, human
[2] = molecular target: T1, PP2C-mediated dephosphorylation of p-T172 of human recombinant AMPKα, -β, and -γ trimers (Homo sapiens, UniProt P54619+P54646+Q9Y478); test: AMPK in vitro de-phosphorylation assay; assay type: biochemical
T1 construct: purchased Life Technologies (AMPK trimer); Abcam (PP2Ca) PV4674 (Lot 1261361B); ab51205-100 (Lot GR54133-5)
T1 sequence (P54646 whole entry): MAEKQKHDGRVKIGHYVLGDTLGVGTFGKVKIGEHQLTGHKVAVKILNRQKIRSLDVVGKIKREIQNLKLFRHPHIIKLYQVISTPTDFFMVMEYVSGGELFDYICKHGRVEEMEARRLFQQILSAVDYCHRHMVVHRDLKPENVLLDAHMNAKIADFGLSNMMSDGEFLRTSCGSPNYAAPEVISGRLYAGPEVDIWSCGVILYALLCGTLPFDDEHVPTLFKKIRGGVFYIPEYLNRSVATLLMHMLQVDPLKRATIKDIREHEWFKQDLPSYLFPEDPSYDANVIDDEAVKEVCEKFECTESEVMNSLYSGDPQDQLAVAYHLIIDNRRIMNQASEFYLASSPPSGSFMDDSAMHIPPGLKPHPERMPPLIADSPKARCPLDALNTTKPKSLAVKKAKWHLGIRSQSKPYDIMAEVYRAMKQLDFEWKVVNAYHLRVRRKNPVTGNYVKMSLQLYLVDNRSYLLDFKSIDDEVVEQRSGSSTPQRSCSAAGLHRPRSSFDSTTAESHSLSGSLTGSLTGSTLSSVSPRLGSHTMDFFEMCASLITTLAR
T1 sequence (Q9Y478 2-270): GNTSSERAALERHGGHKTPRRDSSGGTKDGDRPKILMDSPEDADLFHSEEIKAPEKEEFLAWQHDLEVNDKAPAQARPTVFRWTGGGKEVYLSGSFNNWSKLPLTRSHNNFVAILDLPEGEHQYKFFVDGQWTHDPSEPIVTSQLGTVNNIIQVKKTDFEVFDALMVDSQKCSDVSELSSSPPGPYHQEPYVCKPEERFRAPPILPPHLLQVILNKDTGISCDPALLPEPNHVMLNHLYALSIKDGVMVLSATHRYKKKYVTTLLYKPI
T1 sequence (P54619 whole entry): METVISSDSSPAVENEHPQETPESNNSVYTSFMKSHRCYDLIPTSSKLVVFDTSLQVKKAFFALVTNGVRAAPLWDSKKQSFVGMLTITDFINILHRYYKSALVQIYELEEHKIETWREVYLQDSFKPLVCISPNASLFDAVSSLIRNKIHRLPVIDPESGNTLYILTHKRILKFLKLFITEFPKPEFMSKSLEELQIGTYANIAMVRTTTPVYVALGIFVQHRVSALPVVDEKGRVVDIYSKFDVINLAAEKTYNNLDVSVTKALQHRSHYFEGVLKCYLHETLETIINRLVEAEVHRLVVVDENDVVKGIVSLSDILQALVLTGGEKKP
Description: (§1) AMPKα2/β1/γ1 trimer (Life Technologies #PV4674, Lot 1261361B) (1 ng/μl) was incubated with 10 μM test material, 20 μM test material or 150 μM ADP (Sigma #A2754) +/−1 mM ATP (Sigma #A1852-1VL) in buffer (40 mM Hepes, 0.5 mM DTT, 0.2 mg/ml Gelatin (Sigma #G7041) and 0.4% DMSO), +/−PP2Ca (0.25-0.75 ng/μl) (Abcam ab51205-100; Lot GR54133-5) and 5 mM MnCl2 (total volume 20 μl). AMPKα2/β1/γ1+/−ATP was preincubated with the test material and ADP for 2 minutes at 30° C. before addition of PP2C/MnCl2 to start the dephosphorylation reaction which continued for 10-15 minutes at 30° C. Reactions were terminated by the addition of 0.17% BSA, 13 mM EDTA, 1.3×XT Sample buffer and 0.67% β-Mercaptoethanol in PBS. Samples were placed on ice, 5 minutes, heated at 100° C. for 5 minutes and chilled before run on a western gel. All steps were performed in high quality low-protein-binding eppendorf tubes. In a separate experiment 10 μM test material, 20 μM test material, 150 μM ADP alone or the combination of 10 μM test material+150 μM ADP and 20 μM test material+150 μM ADP was incubated with 1 ng/μl of AMPKα2/β1/γ1 or AMPKα1/β1/γ1 (Life Technologies #PV4672) trimer in buffer (40 mM Hepes, 0.5 mM DTT, 0.2 mg/ml gelatin and 0.4% DMSO)+/−0.25-0.5 ng/μl PP2Ca and 5 mM MnCl2 or 5 mM MgCl2. AMPK was sequentially preincubated with the test material and ADP or the combination for 2 minutes at 30° C. before sequential addition of PP2C/MnCl2 or PP2C/MgCl2 to start the dephosphorylation reaction which continued for 5-15 minutes at 30° C. The reaction was thereafter terminated and analysed as above.

[3] = tested on: PP2C-mediated dephosphorylation of p-T172 of human recombinant AMPKα, -β, and -γ trimers; test: AMPK in vitro de-phosphorylation assay; assay type: biochemical; conditions: with 150 μM ADP
Description: as §1

PP2C-mediated dephosphorylation of p-T172 AMPK ([2]; absence of ATP): suppressed | dephosphorylation of pAMPK ([2]; presence of excess ATP (1.0 mM)): protected pAMPK from dephosphorylation
SMILES: O=C(Nc1nc(=O)n(Cc2ccc(Cl)cc2)s1)c1ccc(Cl)cc1 [test material, 4-chloro-N-[2-[(4-chlorophenyl)methyl]-3-oxo-1,2,4-thiadiazol-5-yl]benzamide]
2-Deoxy-D-glucose (2-DG) uptake (rat skeletal L6 myotubes): increased 2-Deoxy-D-glucose (2-DG) uptake in a dose- and AMPK-dependent manner | microvascular perfusion in glomeruli ([1]; humans): positive effect on microvascular perfusion in glomeruli | renal hemodynamics ([1]; patients suffering from type-2 diabetes): positive effects on renal hemodynamics | effect together with ADP on pAMPK dephosphorylation [3]: acted in an additive manner with ADP
